This passage reports IC50 and Ki results from ChEMBL document CHEMBL1909046, “DrugMatrix in vitro pharmacology data”.

Structures are written as SMILES.

Chain of Mitogen-activated protein kinase 1 (P28482 whole entry): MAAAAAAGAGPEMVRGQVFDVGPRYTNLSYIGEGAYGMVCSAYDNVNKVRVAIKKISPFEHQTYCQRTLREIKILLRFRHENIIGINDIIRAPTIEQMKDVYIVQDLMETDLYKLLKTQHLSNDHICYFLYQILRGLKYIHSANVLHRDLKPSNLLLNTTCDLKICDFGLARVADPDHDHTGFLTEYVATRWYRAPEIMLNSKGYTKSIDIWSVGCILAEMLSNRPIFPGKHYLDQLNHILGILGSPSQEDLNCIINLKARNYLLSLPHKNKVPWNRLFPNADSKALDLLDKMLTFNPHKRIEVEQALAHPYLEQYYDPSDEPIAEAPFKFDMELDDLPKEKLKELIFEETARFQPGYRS

In the first series the target is T1, D(4) dopamine receptor (Homo sapiens, UniProt P21917).
T1 sequence (P21917 whole entry): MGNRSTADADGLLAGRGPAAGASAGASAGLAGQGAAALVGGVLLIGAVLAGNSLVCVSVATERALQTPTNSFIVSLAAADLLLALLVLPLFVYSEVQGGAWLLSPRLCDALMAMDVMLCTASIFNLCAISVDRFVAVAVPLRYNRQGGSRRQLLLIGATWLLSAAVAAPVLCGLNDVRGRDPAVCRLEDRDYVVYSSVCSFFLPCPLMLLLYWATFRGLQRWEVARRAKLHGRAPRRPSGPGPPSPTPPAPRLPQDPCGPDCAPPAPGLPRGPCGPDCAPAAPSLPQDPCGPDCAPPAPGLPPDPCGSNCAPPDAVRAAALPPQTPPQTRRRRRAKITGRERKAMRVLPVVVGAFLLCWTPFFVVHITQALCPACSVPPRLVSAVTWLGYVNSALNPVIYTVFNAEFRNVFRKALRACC
As to the kind of experiment: DRUGMATRIX: Dopamine D4.2 radioligand binding (ligand: [3H] Spiperone). In kind it is cell membranes, CHO-K1, Membrane. As to conditions: cho-k1; Not Active = under 50% inhibition at 10 µM.
As for `O=C(c1ccccc1C(F)(F)F)N1CCC(Cc2ccccc2)CC1`, the IC50 result was “Not Active”.

Turning to `COc1ccc(C(=O)N2CCCC2=O)cc1`, the IC50 result is on record as “Not Active”.

Take `NCCCC(O)(P(=O)(O)O)P(=O)(O)O` [ALENDRONIC ACID]: the IC50 entry is on record as “Not Active”.

As to `CN1[C@@H]2CC[C@H]1C[C@@H](OC(=O)C(CO)c1ccccc1)C2` (some centres not stated) [ATROPINE], the IC50 result is on record as “Not Active”.

A further series addresses T2, Cytochrome P450 1A2 (Homo sapiens, UniProt P05177).
T2 sequence (P05177 whole entry): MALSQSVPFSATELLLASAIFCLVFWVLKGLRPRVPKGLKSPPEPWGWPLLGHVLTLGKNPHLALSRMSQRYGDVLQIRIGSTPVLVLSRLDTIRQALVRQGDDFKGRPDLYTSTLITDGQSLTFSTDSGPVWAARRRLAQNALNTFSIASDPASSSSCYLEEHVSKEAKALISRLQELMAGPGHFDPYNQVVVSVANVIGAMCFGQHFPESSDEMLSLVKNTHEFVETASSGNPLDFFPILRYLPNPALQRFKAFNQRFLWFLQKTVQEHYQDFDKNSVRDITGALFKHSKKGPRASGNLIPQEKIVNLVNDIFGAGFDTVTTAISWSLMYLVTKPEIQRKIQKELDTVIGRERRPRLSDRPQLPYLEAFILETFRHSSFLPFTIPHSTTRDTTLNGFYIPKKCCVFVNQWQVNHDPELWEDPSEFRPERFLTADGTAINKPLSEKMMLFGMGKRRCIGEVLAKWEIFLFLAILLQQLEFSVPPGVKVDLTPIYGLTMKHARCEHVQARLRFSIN
As to conditions: bti-tn-5b1-4.
`O=C(c1ccccc1C(F)(F)F)N1CCC(Cc2ccccc2)CC1`: the IC50 entry is “Not Active” and the Ki result was “Not Active”.

In the case of `COc1ccc(C(=O)N2CCCC2=O)cc1`, the IC50 result was “Not Active” and the Ki entry is on record as “Not Active”.

A further series concerns the target Mitogen-activated protein kinase 1 (Homo sapiens, UniProt P28482). Nature of the series: DRUGMATRIX: Protein Serine/Threonine Kinase, ERK2 enzyme inhibition (substrate: Myelin Basic Protein). Conditions: Not Active = under 50% inhibition at 10 µM. The arrangement: species or system Escherichia coli.
In the case of `O=C(c1ccccc1C(F)(F)F)N1CCC(Cc2ccccc2)CC1`, the IC50 result is listed as “Not Active”.

For the compound `COc1ccc(C(=O)N2CCCC2=O)cc1`, the IC50 result is “Not Active”.

With `NCCCC(O)(P(=O)(O)O)P(=O)(O)O` [ALENDRONIC ACID], the IC50 result was “Not Active”.

As to `CN1[C@@H]2CC[C@H]1C[C@@H](OC(=O)C(CO)c1ccccc1)C2` (some centres not stated) [ATROPINE], the IC50 entry is recorded as “Not Active”.

Tested on in the next series: not listed separately
Nature of the series: DRUGMATRIX: Glutamate, NMDA, Phencyclidine radioligand binding (ligand: [3H] TCP). As to conditions: Not Active = under 50% inhibition at 10 µM. In kind it is cell membranes, Rattus norvegicus, Wistar, Cerebral cortex, Membrane.
With `O=C(c1ccccc1C(F)(F)F)N1CCC(Cc2ccccc2)CC1`, the IC50 entry was “Not Active” and the Ki entry is given as “Not Active”.

Turning to `COc1ccc(C(=O)N2CCCC2=O)cc1`, the IC50 result is recorded as “Not Active” and the Ki entry is listed as “Not Active”.

Take `NCCCC(O)(P(=O)(O)O)P(=O)(O)O` [ALENDRONIC ACID]: the IC50 result was “Not Active” and the Ki entry was “Not Active”.

For the compound `CN1[C@@H]2CC[C@H]1C[C@@H](OC(=O)C(CO)c1ccccc1)C2` (some centres not stated) [ATROPINE], the IC50 result is reported as “Not Active” and the Ki result was “Not Active”.

The target in the next series is T3, Nitric oxide synthase, inducible (Mus musculus, UniProt P29477).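 Note: inhibition of iNOS enzyme activity measured with L-arginine as substrate; in other assays of this panel Not Active means under 50% inhibition at 10 µM.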
T3 sequence (P29477 whole entry): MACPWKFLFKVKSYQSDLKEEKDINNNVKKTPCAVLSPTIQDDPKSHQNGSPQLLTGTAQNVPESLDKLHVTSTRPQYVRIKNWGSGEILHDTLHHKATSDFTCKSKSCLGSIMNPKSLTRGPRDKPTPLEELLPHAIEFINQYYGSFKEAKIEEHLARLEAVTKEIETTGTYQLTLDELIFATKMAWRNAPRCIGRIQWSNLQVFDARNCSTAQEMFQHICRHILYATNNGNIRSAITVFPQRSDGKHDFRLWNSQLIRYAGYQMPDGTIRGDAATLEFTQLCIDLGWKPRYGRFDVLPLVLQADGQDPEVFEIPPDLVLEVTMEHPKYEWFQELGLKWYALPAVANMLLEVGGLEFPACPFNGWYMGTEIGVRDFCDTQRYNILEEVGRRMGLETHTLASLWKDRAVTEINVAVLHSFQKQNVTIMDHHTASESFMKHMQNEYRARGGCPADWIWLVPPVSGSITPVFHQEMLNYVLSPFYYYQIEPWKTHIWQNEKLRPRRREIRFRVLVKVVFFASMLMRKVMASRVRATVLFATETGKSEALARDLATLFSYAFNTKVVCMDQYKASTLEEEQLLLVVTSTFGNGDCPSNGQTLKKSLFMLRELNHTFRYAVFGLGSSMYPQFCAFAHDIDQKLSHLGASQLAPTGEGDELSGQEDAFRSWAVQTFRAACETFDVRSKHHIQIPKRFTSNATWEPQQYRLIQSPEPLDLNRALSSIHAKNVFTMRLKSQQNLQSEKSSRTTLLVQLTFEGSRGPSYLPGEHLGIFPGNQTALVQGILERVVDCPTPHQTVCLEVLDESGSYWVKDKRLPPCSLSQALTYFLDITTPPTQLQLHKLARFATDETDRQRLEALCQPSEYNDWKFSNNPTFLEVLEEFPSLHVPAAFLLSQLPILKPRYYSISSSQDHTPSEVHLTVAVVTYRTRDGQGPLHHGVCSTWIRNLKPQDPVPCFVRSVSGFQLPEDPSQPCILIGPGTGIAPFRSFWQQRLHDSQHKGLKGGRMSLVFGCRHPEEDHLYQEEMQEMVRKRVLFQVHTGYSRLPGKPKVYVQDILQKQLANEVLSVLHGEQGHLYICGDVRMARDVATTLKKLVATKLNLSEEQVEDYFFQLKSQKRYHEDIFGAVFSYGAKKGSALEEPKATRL
Set-up: species or system Escherichia coli.
Conditions: not given
Regarding `O=C(c1ccccc1C(F)(F)F)N1CCC(Cc2ccccc2)CC1`, the IC50 result was “Not Active”.

Regarding `COc1ccc(C(=O)N2CCCC2=O)cc1`, the IC50 entry is on record as “Not Active”.

On to `NCCCC(O)(P(=O)(O)O)P(=O)(O)O` [ALENDRONIC ACID], for which the IC50 result is given as “Not Active”.

In the case of `CN1[C@@H]2CC[C@H]1C[C@@H](OC(=O)C(CO)c1ccccc1)C2` (some centres not stated) [ATROPINE], the IC50 result was “Not Active”.

The next series deals with Carbonic anhydrase 2 (Homo sapiens, UniProt P00918). As to the kind of experiment: DRUGMATRIX: Carbonic Anhydrase II enzyme inhibition (substrate: 4-Nitrophenyl acetate (4-NPA)). Format: tissue-based. As to conditions: erythrocyte; Not Active = under 50% inhibition at 10 µM.
Consider `O=C(c1ccccc1C(F)(F)F)N1CCC(Cc2ccccc2)CC1`, for which the IC50 entry is given as “Not Active”.

As to `COc1ccc(C(=O)N2CCCC2=O)cc1`, the IC50 entry is “Not Active”.

Consider `NCCCC(O)(P(=O)(O)O)P(=O)(O)O` [ALENDRONIC ACID], for which the IC50 entry is recorded as “Not Active”.

As for `CN1[C@@H]2CC[C@H]1C[C@@H](OC(=O)C(CO)c1ccccc1)C2` (some centres not stated) [ATROPINE], the IC50 entry is given as “Not Active”.

For a further series, the target named is Tyrosine-protein kinase Lck (Homo sapiens, UniProt P06239). Nature of the series: DRUGMATRIX: Protein Tyrosine Kinase, LCK enzyme inhibition (substrate: Poly(Glu:Tyr)). Format: cell-based, Insect cells. As to conditions: insect cells; Not Active = under 50% inhibition at 10 µM.
Chain of Tyrosine-protein kinase Lck (P06239 whole entry): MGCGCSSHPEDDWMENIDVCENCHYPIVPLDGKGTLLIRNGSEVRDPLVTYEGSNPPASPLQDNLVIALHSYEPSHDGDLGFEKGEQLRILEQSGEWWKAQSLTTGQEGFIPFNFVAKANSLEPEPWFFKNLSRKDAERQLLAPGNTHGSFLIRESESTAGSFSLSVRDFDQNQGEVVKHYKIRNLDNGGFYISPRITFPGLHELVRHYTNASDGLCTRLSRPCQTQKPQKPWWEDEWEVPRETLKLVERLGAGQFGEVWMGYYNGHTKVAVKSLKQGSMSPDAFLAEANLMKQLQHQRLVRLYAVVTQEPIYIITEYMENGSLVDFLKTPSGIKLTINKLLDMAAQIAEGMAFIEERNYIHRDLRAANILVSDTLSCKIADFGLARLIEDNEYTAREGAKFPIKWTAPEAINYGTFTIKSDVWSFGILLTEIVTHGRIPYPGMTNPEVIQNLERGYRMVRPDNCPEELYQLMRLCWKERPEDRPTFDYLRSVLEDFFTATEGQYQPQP
For `O=C(c1ccccc1C(F)(F)F)N1CCC(Cc2ccccc2)CC1`, the IC50 result was “Not Active”.

Consider `COc1ccc(C(=O)N2CCCC2=O)cc1`, for which the IC50 entry is listed as “Not Active”.

For `NCCCC(O)(P(=O)(O)O)P(=O)(O)O` [ALENDRONIC ACID], the IC50 result is “Not Active”.

In the case of `CN1[C@@H]2CC[C@H]1C[C@@H](OC(=O)C(CO)c1ccccc1)C2` (some centres not stated) [ATROPINE], the IC50 result is “Not Active”.
